Test [1] deals with human prostate DU145 cells. As to the kind of experiment: MTT based cell proliferation assay, DU145. To be noted: for IC50: DU-145, 72 h, read-out: Cell proliferation inhibition in DU145 (Prostate carcinoma), IC50. How it is done: (§1) MTT [3-(4,5-dimethylthiazol-2-yl)-2,5-diphenyltetrazolium bromide incorporation based cell proliferation assay was performed using standard procedure. […] The assay was carried out according to the instructions provided by the vendor. […] Vehicle control culture wells received only a maximum of 0.5% DMSO. Thereafter, 0.5 mg/ml of MTT reagent was added to each well and the microplate was incubated further for 4 h at 37° C. in presence of 5% CO2. Finally, the cells were solubilized by adding solubilizing solution and allowed to incubate at 37° C. overnight. After complete solubilization of the formazan crystals the absorbance was read at 540 nm in a microplate reader (BioRad, USA).
(§2) The evaluation of cell proliferation inhibitory activities of the compounds was done in two phases—(1) Screening, and (2) half-maximal inhibitory concentration (IC50) determination. In the screening phase, the cells were treated with different concentrations.

Test [2] deals with human lung carcinoma A549 cells. Nature of the test: MTT based cell proliferation assay, A549. To be noted: for IC50: A549, 72 h, read-out: Cell proliferation inhibition in A549 (Lung carcinoma), IC50. How it is done:
as §1, §2

The test system of test [3] is human colorectal carcinoma HT29 cells. As to the kind of experiment: MTT based cell proliferation assay, HT29. Particulars: for IC50: HT-29, 72 h, read-out: Cell proliferation inhibition in HT29 (Colon carcinoma), IC50. How it is done:
as §1, §2

Setting [4] is: Homo sapiens, DU-145, read-out: Cell proliferation inhibition in DU145 (Prostate carcinoma).
Where [5] appears, read: Homo sapiens, A549, read-out: Cell proliferation inhibition in A549 (Lung carcinoma).
The mark [6] stands for this setting: Homo sapiens, HT-29, read-out: Cell proliferation inhibition in HT29 (Colon carcinoma).

Results on 27 compounds are retold here after US9090633B2, “Substituted 4-(arylamino) selenophenopyrimidine compounds and methods of use thereof” (KASINA LAILA INNOVA PHARMACEUTICALS PRIVATE LIMITED, priority 2010, dated 2013).

Consider `Fc1ccc(Nc2ncnc3[se]c4c(c23)CCCC4)cc1Cl` [Compound 1, (3-chloro-4-fluorophenyl)-5,6,7,8-tetrahydrobenzo[1,2-b]pyrimidino[5,6-d]selenophen-4-ylamine], for which the IC50 in test [1] (Homo sapiens) is 8.37 µM.

Consider `Brc1cncc(Nc2ncnc3[se]c4c(c23)CCCC4)c1` [Compound 2, (5-bromo(3-pyridyl))-5,6,7,8-tetrahydrobenzo[1,2-b]pyrimidino[5,6-d]selenophen-4-ylamine], for which the inhibition at 22.421 µM in test [1] (setting [4]) came out at 13.1%; in test [2] (setting [5]) it was 20.7%; in test [3] (setting [6]), 11.1%.

Take `Clc1cc(Nc2ncnc3[se]c4c(c23)CCCC4)cc(Cl)n1` [Compound 3, (2,6-dichloropyridin-4-yl)-5,6,7,8-tetrahydrobenzo[1,2-b]pyrimidino[5,6-d]selenophen-4-ylamine]: the inhibition at 22.935 µM was 18.3% in test [1] (setting [4]), 15.6% in test [2] (setting [5]) and 13.8% in test [3] (setting [6]).

As for `Clc1cc(Nc2ncnc3[se]c4c(c23)CCCC4)nc(Cl)n1` [Compound 4, (2,6-dichloropyrimidin-4-yl)-5,6,7,8-tetrahydrobenzo[1,2-b]pyrimidino[5,6-d]selenophen-4-ylamine], the IC50 in test [1] (Homo sapiens) worked out at 37.1 µM; in test [2] (Homo sapiens), 42.3 µM; in test [3] (Homo sapiens), 162 µM.

On to `c1cnc(Nc2ncnc3[se]c4c(c23)CCCC4)cn1` [Compound 5, pyrazin-2-yl-5,6,7,8-tetrahydrobenzo[1,2-b]pyrimidino[5,6-d]selenophen-4-ylamine], for which, in test [1] (Homo sapiens), the IC50 came out at 16.4 µM.

For the compound `Brc1cc(Nc2ncnc3[se]c4c(c23)CCCC4)c(Br)s1` [Compound 6], the values for the IC50 in test [1] (Homo sapiens) and in test [2] (Homo sapiens) were 42.4 µM and 49 µM, respectively. The inhibition at 18.868 µM in test [3] (setting [6]) amounted to 15.5%.

As for `CC(C)(C)c1cc(Nc2ncnc3[se]c4c(c23)CCCC4)c(C(N)=O)s1` [Compound 7, (5-tert-butyl)-3-(5,6,7,8-tetrahydrobenzo[1,2-b]pyrimidino[5,6-d]selenophen-4-ylamino)thiophene-2-carboxamide], the IC50 in test [3] (Homo sapiens) was 9.3 µM.

For `NS(=O)(=O)c1ccc(Nc2ncnc3[se]c4c(c23)CCCC4)cc1` [Compound 12, 4-(5,6,7,8-tetrahydrobenzo[1,2-b]pyrimidino[5,6-d]selenophen-4-ylamino)benzenesulfonamide], the inhibition at 24.449 µM in test [3] (setting [6]) turned out to be 15.6%.

As for `CC(C)(C)c1c[se]c2ncnc(Nc3ccc(F)c(Cl)c3)c12` [Compound 13, [5-(tert-butyl)selenopheno[3,2-e]pyrimidin-4-yl](3-chloro-4-fluorophenyl)amine], the IC50 was 41.6 µM in test [1] (Homo sapiens), 15 µM in test [2] (Homo sapiens) and 37.9 µM in test [3] (Homo sapiens).

For the compound `Fc1ccc(Nc2ncnc3[se]cc(-c4ccccc4)c23)cc1Cl` [Compound 14, (3-chloro-4-fluorophenyl)(5-phenylselenopheno[3,2-e]pyrimidin-4-yl]amine], the IC50 was determined as 105 µM in test [1] (Homo sapiens) and 121 µM in test [2] (Homo sapiens).

For the compound `Cc1c(C(=O)O)[se]c2ncnc(Nc3ccc(F)c(Cl)c3)c12` [Compound 15, 4-[(3-chloro-4-fluorophenyl)amino]-5-methylselenopheno[2,3-d]pyrimidine-6-carboxylic acid], the results for the inhibition at 240.539 µM in test [1] (setting [4]), in test [2] (setting [5]) and in test [3] (setting [6]) were 41.2%, 25% and 18.9%, respectively.

On to `Cc1[se]c2ncnc(Nc3ccc(F)c(Cl)c3)c2c1-c1ccccc1` [Compound 16], for which the IC50 came to 111 µM in test [1] (Homo sapiens) and 44.1 µM in test [2] (Homo sapiens). For the same compound, the inhibition at 66.079 µM in test [3] (setting [6]) was determined as 38.6%.

Consider `Cc1c(C(N)=O)[se]c2ncnc(Nc3ccc(F)c(Cl)c3)c12` [Compound 17, 4-[(3-chloro-4-fluorophenyl)amino]-5-methylselenopheno[2,3-d]pyrimidine-6-carboxamide], for which the inhibition at 25 µM in test [1] (setting [4]) turned out to be 44.4%; in test [2] (setting [5]), 21.4%.

Regarding `Fc1ccc(Nc2ncnc3[se]c4c(c23)CCNC4)cc1Cl` [Compound 18, (3-chloro-4-fluorophenyl)-5,6,7,8-tetrahydropyrimidino[5′,6′-5,4]selenopheno[2,3-c]pyridine-4-ylamine], the IC50 in test [1] (Homo sapiens) is 42.5 µM; in test [2] (Homo sapiens), 82.6 µM; in test [3] (Homo sapiens) it was 39.1 µM.

On to `CS(=O)(=O)N1CCc2c([se]c3ncnc(Nc4ccc(F)c(Cl)c4)c23)C1` [Compound 19, 4[(3-chloro-4-fluorophenyl)amino]-7-(methylsulfonyl)-5,6,7,8-tetrahydro-pyrimidino[5′,4′-5,4]selenopheno[2,3-c]pyridine], for which the inhibition at 25 µM in test [1] (setting [4]) is 29.2%; in test [2] (setting [5]), 27.4%; in test [3] (setting [6]), 3.07%.

For `Brc1cccc(Nc2ncnc3[se]c4c(c23)CCNC4)c1` [Compound 20, (3-bromophenyl)-5,6,7,8-tetrahydropyrimidino[5′,6′-5,4]selenopheno[2,3-c]pyridin-4-ylamine], the values for the inhibition at 22.421 µM in test [1] (setting [4]), in test [2] (setting [5]) and in test [3] (setting [6]) were 13.4%, 0.45% and 8.96%, respectively.

As to `C#Cc1cccc(Nc2ncnc3[se]c4c(c23)CCNC4)c1` [Compound 21, (3-ethynylphenyl)-5,6,7,8-tetrahydropyrimidino[5′,6′-5,4]selenopheno[2,3-c]pyridine-4-ylamine], the inhibition at 25.575 µM turned out to be 12.9% in test [1] (setting [4]), 11.6% in test [2] (setting [5]) and 4.66% in test [3] (setting [6]).

Consider `Clc1ccc(Nc2ncnc3[se]c4c(c23)CCNC4)cc1Cl` [Compound 22, (3,4-dichlorophenyl)-5,6,7,8-tetrahydropyrimidino[5′,6′-5,4]selenopheno[2,3-c]pyridin-4-ylamine], for which the inhibition at 22.935 µM in test [1] (setting [4]) came out at 36.6%; in test [2] (setting [5]), 16.7%; in test [3] (setting [6]) it was 28.4%.

Regarding `COC(=O)c1cc(Nc2ncnc3[se]c4c(c23)CCNC4)c(C)s1` [Compound 23, methyl 5-methyl-4-(5,6,7,8-tetrahydropyrimidino[5′,6′-5,4]selenopheno[2,3-c]pyridin-4-ylamino)thiophene-2-carboxylate], the inhibition at 22.472 µM in test [1] (setting [4]) is 5.08%; in test [2] (setting [5]), 8.64%; in test [3] (setting [6]) it was 15.4%.

For `Cc1c(C(=O)NCCCl)[se]c2ncnc(Nc3ccc(F)c(Cl)c3)c12` [Compound 25], the IC50 is 8.51 µM in test [1] (Homo sapiens) and 9.24 µM in test [3] (Homo sapiens). In test [2] (setting [5]), the inhibition at 19.92 µM was found to be 0.19%.

With `O=C1CCc2c([se]c3ncnc(Nc4ccc(F)c(Cl)c4)c23)C1` [Compound 26, 4-[(3-chloro-4-fluorophenyl)amino]-5,6,8-trihydrobenzo[2,1-b]pyrimidino[5,4-d]selenophen-7-one], the values for the inhibition at 23.148 µM in test [1] (setting [4]), in test [2] (setting [5]) and in test [3] (setting [6]) were 65.1%, 17.5% and 30.9%, respectively.

For `Fc1ccc(Nc2ncnc3c4c([se]c23)CCCC4)cc1Cl` [Compound 27, (3-chloro-4-fluorophenyl)-6,7,8,9-tetrahydrobenzo[1,2-d]pyrimidino[5,6-b]selenophen-4-ylamine], the IC50 in test [1] (Homo sapiens) worked out at 11.4 µM; in test [2] (Homo sapiens), 33.5 µM; in test [3] (Homo sapiens) it was 117 µM.

For the compound `CC(C)(C)c1cc2ncnc(Nc3ccc(F)c(Cl)c3)c2[se]1` [Compound 28, [6-(tert-butyl)selenopheno[2,3-e]pyrimidin-4-yl](3-chloro-4-fluorophenyl)amine], the IC50 in test [1] (Homo sapiens) was found to be 82.7 µM; in test [2] (Homo sapiens) it was 109 µM; in test [3] (Homo sapiens), 71 µM.

As for `Fc1ccc(Nc2ncnc3cc(-c4ccccc4)[se]c23)cc1Cl` [Compound 29, (3-chloro-4-fluorophenyl)(6-phenylselenopheno[2,3-e]pyrimidin-4-yl)amine], the inhibition at 25 µM in test [1] (setting [4]) amounted to 30.8%; in test [3] (setting [6]) it was 43.1%. Besides, the inhibition at 30 µM in test [2] (setting [5]) was found to be 45.5%.

`Fc1ccc(Nc2ncnc3c2[se]c2ccccc23)cc1Cl` [Compound 30, benzo[d]pyrimidino[5,6-b]selenophen-4-yl(3-chloro-4-fluorophenyl)amine]: the figures for the IC50 in test [1] (Homo sapiens) and in test [2] (Homo sapiens) were 26.8 µM and 21.8 µM, respectively. Further, in test [3] (setting [6]), the inhibition at 25 µM amounted to 38.1%.

For `Fc1ccc(Nc2ncnc3c2[se]c2ncccc23)cc1Cl` [Compound 31, (3-chloro-4-fluorophenyl)pyrimidino[4′,5′-5,4]selenopheno[2,3-b]pyridin-4-ylamine], the figures for the inhibition at 25 µM in test [1] (setting [4]), in test [2] (setting [5]) and in test [3] (setting [6]) were 22%, 30.2% and 5.21%, respectively.

“ethyl 4-[(3-chloro-4-fluorophenyl)amino]-5-methylthioselenopheno[3,4-d]pyrimidine-7-carboxylate [Compound 32]”: the “Cell proliferation inhibition in DU145 (Prostate carcinoma)” value in test [1] (at 25 μM) is on record as 9.75% at 25 μM. Further, the “Cell proliferation inhibition in A549 (Lung carcinoma)” value in test [2] (at 25 μM) came to 26.1% at 25 μM. Also, the “Cell proliferation inhibition in HT29 (Colon carcinoma)” value in test [3] (at 25 μM) is reported as 12.97% at 25 μM.
